Measurements taken from patent US20040167330A1, “Novel chelating agents and conjugates thereof, their synthesis and use as diagnois and therapeutic agents” (priority 2004, published 2004).

How the values were obtained:
Type in all cases: physicochemical
[1] = Formation of ^90Y-yttrium complex, radiochemical yield by TLC/HPLC; settings: reaction time 0 min; 25° C.; [Y] = 1,2 · 10^−3 mol/l; ratio of ligand: Y = 1:1; pH = 5.5
[2] = Relaxation measurements of gadolinium(III) complex solutions; settings: gadolinium(III) complex prepared in solution from GdCl3.6H2O; approx. pH 7; at 10 MHz
Method: Solution was stirred for 1 h at room temperature and pH was set to approx. pH 7 by careful addition of solid KOH. Thus prepared solution as well as other solutions of different concentration which were prepared by a similar approach (all containing known amount of water and gadolinium(III)) were used for relaxation measurements. The solutions gave relaxivity 7.86 mmol^−1 s^−1 (at 10 MHz).
Solution of gadolinium(III) complex of compound 1 for relaxation measurements were prepared similarly to Example 51. The solutions gave relaxivity 7.54 mmol-1 s^−1 (at 10 MHz). Exchange half-life of coordinated water molecule 70 ns was determined (from temperature dependence of ^17O NMR parameters).

[3] = Formation of ^90Y-yttrium complex, radiochemical yield by TLC/HPLC; settings: for radiochemical yield: 25° C.
Method: Purified DO3A-P^BnNH2 was dissolved in demineralised water at a concentration of 9×10^−5 mol/l. 0.1 ml of this solution were transferred into a small reaction vial (PE). 0.1 ml ^90Y-yttrium chloride (YCl3) in 0.1 M HCl and 0.1 ml ammonium acetate buffer, pH 5.7, were added. The reaction solutions were mixed well. pH values were measured continuously while preparing the solution. 24 identical solutions were prepared accordingly and stored at 25° C. and 37° C. respectively.
Samples were taken after 15 min, 30 min, 45 min, 60 min, 90 min and 120 min and analyzed by thin layer chromatography using silica gel (POLYGRAM SIL G/UV254) or, preferably, paper (Whatman No. 1) as solid phase. TLC was run using either solvent I: 0.1 N ammonium acetate solution or solvent II: 3% sodium chloride solution as developing solution. In parallel, samples (20 μl) were analyzed by gel filtration using HPLC. The HPLC-system comprised a gamma detector (Berthold LB 506) and a UV/VIS spectrometer (Waters 486) installed in two flow through cells, respectively.
Temperature- and time-dependent studies have shown a very short reaction time for the complex formation of a ^90Y-Yttrium-DO3A-complex.
Furthermore, the effect of pH and ligand concentration on radiochemical yield was evaluated. Table 5 summarizes the results relating to the variation of pH between pH 2.0 and pH 8.9 while maintaining a constant ratio of DO3A-P^BnNH2 and Y of 3:1 and a reaction time of 60 min at 25° C. Accordingly, best labeling results are achieved at pH values of 4.9-8.0. Table 6 summarizes the results relating to the variation of the ligand concentration DO3A-P^BnNH2: Y between 1:1 up to 7:1 while maintaining a constant pH range (pH 5.2) and reaction time of 60 min at 25° C.

## Nc1ccc(CP(=O)(O)CN2CCN(CC(=O)O)CCN(CC(=O)O)CCN(CC(=O)O)CC2)cc1 [Compound 11]
[1]
  radiochemical yield: 88%
[2]
  relaxivity: 7.86 mmol⁻¹ s⁻¹
[3]; ^90Y, ratio of DO3A-P^BnNH2 and Y of 3:1, reaction time of 60 min at 25° C., pH varied 2.0 to 8.9
  pH values at which best labeling results are achieved: 4.9-8.0
[3]; ratio of ligand:Y 1:1, [Y] = 1.2 · 10^−3 mol/l, pH = 5.2, reaction time 60 min
  radiochemical yield: 94%
[3]; reaction time 15 min, [Y] = 1,2 · 10^−3 mol/l, ratio of ligand: Y = 1:1, pH = 5.5
  radiochemical yield: 97%
